Experiments:
[1] = target: AcePrx-1 (peroxiredoxin-1) (Ancylostoma ceylanicum, UniProt J7HJM3); experiment: co-crystal structure; type: biochemical
[2] = target: T1, human peroxiredoxin-II (hPrxII) (Homo sapiens, UniProt P32119); experiment: H2O2 consumption assay; type: biochemical
T1 sequence (P32119 2-198): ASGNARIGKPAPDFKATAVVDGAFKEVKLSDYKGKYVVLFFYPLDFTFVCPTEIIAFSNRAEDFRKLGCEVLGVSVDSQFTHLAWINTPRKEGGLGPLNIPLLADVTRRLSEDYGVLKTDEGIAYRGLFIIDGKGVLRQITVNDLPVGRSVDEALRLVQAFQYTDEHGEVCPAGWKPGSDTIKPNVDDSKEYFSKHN

[3] = target: T2, human peroxiredoxin-IV (hPrxIV) (Homo sapiens, UniProt Q13162); experiment: H2O2 consumption assay; type: biochemical
T2 sequence (Q13162 38-271): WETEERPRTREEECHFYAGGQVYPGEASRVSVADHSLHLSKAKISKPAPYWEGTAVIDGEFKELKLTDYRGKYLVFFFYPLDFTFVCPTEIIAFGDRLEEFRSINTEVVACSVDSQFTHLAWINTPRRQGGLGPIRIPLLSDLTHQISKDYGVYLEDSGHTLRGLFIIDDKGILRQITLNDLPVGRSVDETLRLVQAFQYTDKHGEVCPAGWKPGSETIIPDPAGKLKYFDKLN

[4] = target: Peroxiredoxin-1 from Ancylostoma ceylanicum, wild type, N-terminal histidine tag (Ancylostoma ceylanicum); experiment: non-reducing SDS-PAGE
[5] = target: Peroxiredoxin-1 from Ancylostoma ceylanicum, wild type, N-terminal histidine tag (Ancylostoma ceylanicum); experiment: SEC-MALS
[6] = target: AcePrx-1 containing a C-terminal histidine tag (Ancylostoma ceylanicum); experiment: SEC-MALS
[7] = target: T3, AcePrx-1 (peroxiredoxin-1) (Ancylostoma ceylanicum, UniProt J7HJM3); experiment: LC-ESI-MS of covalent adduct on purified protein; type: binding
T3 sequence (J7HJM3 1-196): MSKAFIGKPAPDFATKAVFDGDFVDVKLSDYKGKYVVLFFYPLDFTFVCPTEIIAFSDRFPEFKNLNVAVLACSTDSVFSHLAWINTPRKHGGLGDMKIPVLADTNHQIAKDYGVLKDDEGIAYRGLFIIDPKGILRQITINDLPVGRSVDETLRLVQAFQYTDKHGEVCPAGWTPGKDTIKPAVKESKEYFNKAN

Question: With `[O-][n+]1c(CBr)c(CBr)[n+]([O-])c2ccccc21` [conoidin A, 2,3-bis(bromomethyl)quinoxaline-1,4-dioxide] as the compound, how does the IC50 [1] read?
Answer: 374 µM

Question: And the IC50 [2]?
Answer: 358 µM

Question: And the IC50 [3]?
Answer: 262 µM

Question: Which stoichiometry N [4] does the source give for “Peroxiredoxin-1 from Ancylostoma ceylanicum, wild type, N-terminal histidine tag (enzyme)” here?
Answer: 2

Question: What about the stoichiometry N [5] of the same compound?
Answer: 10

Question: How did the stoichiometry N [6] turn out when “AcePrx-1 containing a C-terminal histidine tag (enzyme)” was run?
Answer: 10

Question: How did the “LC-ESI-MS of covalent adduct on purified protein” value [7] turn out when `Cc1c(CBr)[n+]([O-])c2ccccc2[n+]1[O-]` [conoidin B, 2-(bromomethyl)-3-methylquinoxaline-1,4-dioxide] was run?
Answer: Conoidin B reacted to wild type AcePrx-1 to produce a 189-Da adduct in LC-ESI-MS

From publication PMC3755041 (Chemistry & biology, 2013)
